Experimental data: the supplement of paper PMC7695840
Where “and” joins values, the source holds several entries; their conditions need not be identical. Identical values can stand only once. Counter-ions that a name gives are not always drawn.

Tests used:
[1] = tested on: Staphylococcus aureus MW2 delta-mecA (mecA-); test: IC50 (growth, competition assay); details: cefoxitin: subinhibitory
Procedure, shortened: (§1)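 Signals from DsRed (540/590) and GFP (485/520) were scaled on every plate between single-strain control medians, with No Treatment then set to 0.5. The cells were a 1:1 mix of pre-induced fluorescent S. aureus MW2 strains with and without the resistance gene, grown unshaken for 20 h at 37 °C and 90% humidity in LB in 1536-well plates under a subinhibitory drug dose set each day. Each strain's IC50 was defined as the dose halving the No Treatment signal, or the maximal signal.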

[2] = tested on: Staphylococcus aureus MW2 (mecA+); test: IC50 (growth, competition assay); details: cefoxitin: subinhibitory
Procedure, shortened: as §1

Row | SMILES | IC50 ([1]; fluorescent label: DsRed) | IC50 ([1]; fluorescent label: GFP) | IC50 ([2]; fluorescent label: DsRed) | IC50 ([2]; fluorescent label: GFP)
1 | CC[C@H]1OC(=O)[C@H](C)[C@@H](O[C@H]2C[C@@](C)(OC)[C@@H](O)[C@H](C)O2)[C@H](C)[C@@H](O[C@@H]2O[C@H](C)C[C@H](N(C)C)[C@H]2O)[C@](C)(O)C[C@@H](C)/C(=N\OCOCCOC)[C@H](C)[C@@H](O)[C@]1(C)O [Roxithromycin (Roxl-150)] | < 0.498 µM | < 0.498 µM | 4.26 µM | 3.99 µM
2 | Cc1cncc(CN2CCC(=C3c4ccc(Cl)cc4CCc4cccnc43)CC2)c1 [Rupatadine Fumarate] | 26.6 µM | 20.2 µM | 74.3 µM | 112 µM
3 | COC(=O)C1=C(C)NC(C)=C(C(=O)OCCCN2CCC(c3ccccc3)(c3ccccc3)CC2)[C@H]1c1cccc([N+](=O)[O-])c1 [S-(+)-Niguldipine hydrochloride] | < 9.85 µM | < 9.85 µM | < 9.85 µM | 11.4 µM
4 | O=C(O)c1cn(-c2ccc(F)cc2)c2cc(N3CCNCC3)c(F)cc2c1=O [SARAFLOX] | < 9.85 µM | < 9.85 µM | < 9.85 µM | < 9.85 µM
5 | NS(=O)(=O)c1ccc(-n2nc(C(F)(F)F)cc2-c2ccc(Cl)cc2)cc1 [SC-236] | 26.4 µM | 16.3 µM | 94.1 µM | 97.3 µM
6 | C=C[C@](C)(O)CC[C@@H]1[C@@]2(C)CCCC(C)(C)[C@@H]2CC[C@@]1(C)O [SCLAREOL] | < 9.85 µM | < 9.85 µM | 31.4 µM | 28.9 µM
7 | OC1(c2ccc(Cl)c(C(F)(F)F)c2)CCN(CCCC(c2ccc(F)cc2)c2ccc(F)cc2)CC1 [SEMAP] | < 9.85 µM | < 9.85 µM | 29.7 µM | 27.3 µM
8 | N[C@@H]1CONC1=O [SEROMYCIN] | 98.8 µM | 91.5 µM | > 150 µM | 110 µM
9 | CN(CC(=O)N(Cc1ccc(C2CCCCC2)cc1)c1ccc(C(=O)O)cc1)S(=O)(=O)c1c(F)c(F)c(F)c(F)c1F [SH-4-54] | < 9.85 µM | < 9.85 µM | < 9.85 µM | 11.5 µM
10 | CC(=O)Oc1ccc(Cl)c2cccnc12 [SILITAL] | 15.6 µM | < 9.85 µM | 17.2 µM | 29.8 µM
11 | O=C1c2ccccc2-c2nc3nonc3nc21 [SMER 3] | 20.4 µM | < 9.85 µM | 65.9 µM | > 150 µM
12 | O=C1NC(=O)/C(=C/c2cccc(C(F)(F)F)c2)S1 [SMI-4a] | < 9.85 µM | 12.2 µM and 14.6 µM | < 9.85 µM | < 9.85 µM
13 | CN(C)c1ccc(O)c2c1C[C@H]1C[C@H]3[C@H](N(C)C)C(O)=C(C(N)=O)C(=O)[C@@]3(O)C(O)=C1C2=O [SOLODYN] | < 9.85 µM | < 9.85 µM | < 9.85 µM | < 9.85 µM
14 | CO/N=C(\C(=O)N[C@@H]1C(=O)N2C(C(=O)OCOC(=O)C(C)(C)C)=C(/C=C\c3scnc3C)CS[C@H]12)c1csc(N)n1 [SPECTRACEF] | < 9.85 µM | < 9.85 µM | 32.9 µM | 18.7 µM
15 | COc1cccc(OC)c1C(=O)N[C@@H]1C(=O)N2[C@@H]1SC(C)(C)[C@@H]2C(=O)O [STAPHCILLIN] | < 9.85 µM | < 9.85 µM | < 9.85 µM | < 9.85 µM
16 | CN1CCN(CCCN2c3ccccc3Sc3ccc(C(F)(F)F)cc32)CC1 [STELAZINE] | 18.1 µM | 15.9 µM | 55 µM | 55.8 µM
17 | COC(=O)C1=C(C)NC(C)=C(C(=O)OCC(C)C)C1c1ccccc1[N+](=O)[O-] (stereo unspecified) [SULAR] | 78 µM | 51.8 µM | > 150 µM | > 150 µM
18 | CCCCCCCCNC(C)C(O)c1ccc(SC(C)C)cc1 (stereo unspecified) [SULOCTIDIL] | 17.3 µM | 24.4 µM | 29.6 µM | 27.5 µM
19 | O=C(O)c1cn(-c2ccc(F)cc2)c2cc(N3CCNCC3)c(F)cc2c1=O [Sarafloxacin HCl] | < 0.498 µM | < 0.498 µM | < 0.498 µM | < 0.498 µM
20 | C=C[C@](C)(O)CC[C@@H]1[C@@]2(C)CCCC(C)(C)[C@@H]2CC[C@@]1(C)O [Sclareol] | 25 µM | 19.7 µM | 99.3 µM | 65.2 µM
21 | CN[C@H]1CC[C@@H](c2ccc(Cl)c(Cl)c2)c2ccccc21 [Sertraline HCl] | 12 µM | < 9.85 µM | 94.5 µM | 111 µM
22 | CN[C@H]1CC[C@@H](c2ccc(Cl)c(Cl)c2)c2ccccc21 [Sertraline hydrochloride] | 22.8 µM | 33.7 µM | 96.4 µM | 77.9 µM
23 | N[C@@H]1CN(c2c(F)cc3c(=O)c(C(=O)O)cn([C@@H]4C[C@@H]4F)c3c2Cl)CC12CC2 [Sitafloxacin hydrate] | < 0.498 µM | < 0.498 µM | < 0.498 µM | < 0.498 µM
24 | CNC(=O)c1cc(Oc2ccc(NC(=O)Nc3ccc(Cl)c(C(F)(F)F)c3)cc2)ccn1 [Sorafenib] | < 9.85 µM | < 9.85 µM | < 9.85 µM | < 9.85 µM
25 | O=C1NC(=O)[C@@]2(CCOc3ccc(F)cc32)N1 [Sorbinil] | < 9.85 µM | < 9.85 µM | < 9.85 µM | < 9.85 µM
26 | C[C@@H]1CN(c2c(F)c(N)c3c(=O)c(C(=O)O)cn(C4CC4)c3c2F)C[C@H](C)N1 [Sparfloxacin] | < 0.498 µM | < 0.498 µM | 0.78 µM | 0.746 µM
27 | COc1cc2ncnc(Nc3ccc(Oc4ccccc4)cc3)c2cc1OC [Src I1] | 30.6 µM | 25.3 µM | 29 µM | 30.7 µM
28 | O=[N+]([O-])c1ccc2c(c1)S(=O)(=O)C=C2 [Stattic] | 25.7 µM and 16.6 µM | 13.6 µM and < 9.85 µM | 35.8 µM and 35.3 µM | 35.4 µM and 56.2 µM
29 | CC(C)n1cnc2c(NCCc3ccc(O)cc3)nc(-c3csc4ccccc34)nc21 [StemRegenin 1] | 15.1 µM | 11.2 µM | 25.6 µM | 29.9 µM
